Columns and labels:
Format in all cases: in vivo
[1] = test system: barnyardgrass (Echinochloa crus-galli); assay: Test A pre-/postemergence plant response; conditions: for Barnyardgrass plant response rating: visual injury, 0 to 100 scale (0 no effect, 100 complete control), approx. ten days
Procedure, shortened: (§1)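 Injury was scored visually after roughly ten days against untreated controls, 0 = no effect, 100 = complete control. Test chemicals in a surfactant-containing non-phytotoxic solvent were sprayed either onto soil preemergence or onto one- to two-leaf, 2–10 cm plants postemergence.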

corn (Zea mays) = assay: Test A pre-/postemergence plant response; conditions: for Corn plant response rating: visual injury, 0 to 100 scale (0 no effect, 100 complete control), approx. ten days
Procedure, shortened: as §1

[2] = test system: giant foxtail (Setaria faberii); assay: Test A pre-/postemergence plant response; conditions: for Foxtail, Giant plant response rating: visual injury, 0 to 100 scale (0 no effect, 100 complete control), approx. ten days
Procedure, shortened: as §1

[3] = test system: large crabgrass (Digitaria sanguinalis); assay: Test A pre-/postemergence plant response; conditions: for Crabgrass, Large plant response rating: visual injury, 0 to 100 scale (0 no effect, 100 complete control), approx. ten days
Procedure, shortened: as §1

[4] = test system: morningglory (Ipomoea spp.); assay: Test A pre-/postemergence plant response; conditions: for Morningglory plant response rating: visual injury, 0 to 100 scale (0 no effect, 100 complete control), approx. ten days
Procedure, shortened: as §1

[5] = test system: pigweed (Amaranthus retroflexus); assay: Test A pre-/postemergence plant response; conditions: for Pigweed plant response rating: visual injury, 0 to 100 scale (0 no effect, 100 complete control), approx. ten days
Procedure, shortened: as §1

[6] = test system: velvetleaf (Abutilon theophrasti); assay: Test A pre-/postemergence plant response; conditions: for Velvetleaf plant response rating: visual injury, 0 to 100 scale (0 no effect, 100 complete control), approx. ten days
Procedure, shortened: as §1

[7] = test system: wheat (Triticum aestivum); assay: Test A pre-/postemergence plant response; conditions: for Wheat plant response rating: visual injury, 0 to 100 scale (0 no effect, 100 complete control), approx. ten days
Procedure, shortened: as §1

[8] = test system: barnyardgrass (Echinochloa crus-galli); assay: Test B flooded paddy test; conditions: for Plant response rating, Flood, Barnyardgrass: 250 g ai/ha, flooded paddy test, visual rating on 0 to 100 scale (0 no effect, 100 complete control) after 13 to 15 days; for Plant response rating, Barnyardgrass: Flood (flooded paddy test), 13 to 15 days; for Barnyardgrass plant response rating: Flood, 31 g ai/ha, scale 0 to 100 (0 no effect, 100 complete control)
Procedure, shortened: (§2)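 Greenhouse-held for 13 to 15 days, treated pots were compared visually with controls and scored 0–100 (0, no effect). Treatment had been made into paddy water kept at 3 cm above the soil, with plants at the 2-leaf stage.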

[9] = test system: ducksalad (Heteranthera limosa); assay: Test B flooded paddy test; conditions: for Plant response rating, Flood, Ducksalad: 250 g ai/ha, flooded paddy test, visual rating on 0 to 100 scale (0 no effect, 100 complete control) after 13 to 15 days; for Plant response rating, Ducksalad: Flood (flooded paddy test), 13 to 15 days; for Ducksalad plant response rating: Flood, 31 g ai/ha, scale 0 to 100 (0 no effect, 100 complete control)
Procedure, shortened: as §2

rice (Oryza sativa) = assay: Test B flooded paddy test; conditions: for Plant response rating, Flood, Rice: 250 g ai/ha, flooded paddy test, visual rating on 0 to 100 scale (0 no effect, 100 complete control) after 13 to 15 days; for Plant response rating, Rice: Flood (flooded paddy test), 13 to 15 days; for Rice plant response rating: Flood, 31 g ai/ha, scale 0 to 100 (0 no effect, 100 complete control)
Procedure, shortened: as §2

[10] = test system: umbrella sedge (Cyperus difformis); assay: Test B flooded paddy test; conditions: for Plant response rating, Flood, Sedge, Umbrella: 250 g ai/ha, flooded paddy test, visual rating on 0 to 100 scale (0 no effect, 100 complete control) after 13 to 15 days; for Plant response rating, Sedge, Umbrella: Flood (flooded paddy test), 13 to 15 days; for Sedge, Umbrella plant response rating: Flood, 31 g ai/ha, scale 0 to 100 (0 no effect, 100 complete control)
Procedure, shortened: as §2

[11] = Postemergence, 125 g ai/ha, 0 to 100 scale where 0 is no effect and 100 is complete control
[12] = Preemergence, 125 g ai/ha, 0 to 100 scale, 0 = no effect, 100 = complete control
[13] = Preemergence, 500 g ai/ha, 0 to 100 scale, 0 = no effect, 100 = complete control
[14] = 62 g ai/ha, scale of 0 to 100 where 0 is no effect and 100 is complete control
[15] = 125 g ai/ha, scale 0 to 100, 0 is no effect, 100 is complete control

## O=C1CCCC(O)=C1C(=O)c1cnc(-c2cccc(F)c2)n(CCC(F)(F)F)c1=O [Compound 208]
[1]; [11]
  Plant response rating, Barnyardgrass: 30
[1]; Postemergence, 500 g ai/ha
  Barnyardgrass plant response rating: 90
[1]; [12]
  Plant response rating, Barnyardgrass: 10
[1]; [13]
  Plant response rating, Barnyardgrass: 80
Corn (Zea mays); [11]
  Plant response rating, Corn: 0
Corn (Zea mays); Postemergence, 500 g ai/ha
  Corn plant response rating: 20
Corn (Zea mays); [12]
  Plant response rating, Corn: 0
Corn (Zea mays); [13]
  Plant response rating, Corn: 20
[2]; [11]
  Plant response rating, Foxtail, Giant: 30
[2]; Postemergence, 500 g ai/ha
  Foxtail, Giant plant response rating: 80
[2]; [12]
  Plant response rating, Foxtail, Giant: 40
[2]; [13]
  Plant response rating, Foxtail, Giant: 70
[3]; [11]
  Plant response rating, Crabgrass, Large: 30
[3]; Postemergence, 500 g ai/ha
  Crabgrass, Large plant response rating: 80
[3]; [12]
  Plant response rating, Crabgrass, Large: 80
[3]; [13]
  Plant response rating, Crabgrass, Large: 100
[4]; [11]
  Plant response rating, Morningglory: 50
[4]; Postemergence, 500 g ai/ha
  Morningglory plant response rating: 100
[4]; [12]
  Plant response rating, Morningglory: 0
[4]; [13]
  Plant response rating, Morningglory: 70
[5]; [11]
  Plant response rating, Pigweed: 80
[5]; Postemergence, 500 g ai/ha
  Pigweed plant response rating: 90
[5]; [12]
  Plant response rating, Pigweed: 60
[5]; [13]
  Plant response rating, Pigweed: 100
[6]; [11]
  Plant response rating, Velvetleaf: 100
[6]; Postemergence, 500 g ai/ha
  Velvetleaf plant response rating: 100
[6]; [12]
  Plant response rating, Velvetleaf: 60
[6]; [13]
  Plant response rating, Velvetleaf: 90
[7]; [11]
  Plant response rating, Wheat: 0
[7]; Postemergence, 500 g ai/ha
  Wheat plant response rating: 10
[7]; [12]
  Plant response rating, Wheat: 0
[7]; [13]
  Plant response rating, Wheat: 20
[8]
  Plant response rating, Flood, Barnyardgrass: 25
  Barnyardgrass plant response rating: 0
[8]; [14]
  Plant response rating, Barnyardgrass: 0
[8]; [15]
  Plant response rating, Barnyardgrass: 15
[9]
  Plant response rating, Flood, Ducksalad: 75
  Ducksalad plant response rating: 0
[9]; [14]
  Plant response rating, Ducksalad: 30
[9]; [15]
  Plant response rating, Ducksalad: 40
Rice (Oryza sativa)
  Plant response rating, Flood, Rice: 0
  Rice plant response rating: 0
Rice (Oryza sativa); [14]
  Plant response rating, Rice: 0
Rice (Oryza sativa); [15]
  Plant response rating, Rice: 0
[10]
  Plant response rating, Flood, Sedge, Umbrella: 70
  Sedge, Umbrella plant response rating: 0
[10]; [14]
  Plant response rating, Sedge, Umbrella: 40
[10]; [15]
  Plant response rating, Sedge, Umbrella: 40

## Cc1cccc(-c2ncc(C(=O)C3=C(O)CCCC3=O)c(=O)n2-c2ccccc2C)c1 [Compound 210]
[1]; [11]
  Plant response rating, Barnyardgrass: 40
[1]; Postemergence, 500 g ai/ha
  Barnyardgrass plant response rating: 90
[1]; [12]
  Plant response rating, Barnyardgrass: 10
[1]; [13]
  Plant response rating, Barnyardgrass: 70
Corn (Zea mays); [11]
  Plant response rating, Corn: 0
Corn (Zea mays); Postemergence, 500 g ai/ha
  Corn plant response rating: 0
Corn (Zea mays); [12]
  Plant response rating, Corn: 0
Corn (Zea mays); [13]
  Plant response rating, Corn: 0
[2]; [11]
  Plant response rating, Foxtail, Giant: 10
[2]; Postemergence, 500 g ai/ha
  Foxtail, Giant plant response rating: 70
[2]; [12]
  Plant response rating, Foxtail, Giant: 20
[2]; [13]
  Plant response rating, Foxtail, Giant: 90
[3]; [11]
  Plant response rating, Crabgrass, Large: 10
[3]; Postemergence, 500 g ai/ha
  Crabgrass, Large plant response rating: 30
[3]; [12]
  Plant response rating, Crabgrass, Large: 10
[3]; [13]
  Plant response rating, Crabgrass, Large: 50
[4]; [11]
  Plant response rating, Morningglory: 50
[4]; Postemergence, 500 g ai/ha
  Morningglory plant response rating: 100
[4]; [12]
  Plant response rating, Morningglory: 0
[4]; [13]
  Plant response rating, Morningglory: 50
[5]; [11]
  Plant response rating, Pigweed: 90
[5]; Postemergence, 500 g ai/ha
  Pigweed plant response rating: 100
[5]; [12]
  Plant response rating, Pigweed: 60
[5]; [13]
  Plant response rating, Pigweed: 100
[6]; [11]
  Plant response rating, Velvetleaf: 70
[6]; Postemergence, 500 g ai/ha
  Velvetleaf plant response rating: 70
[6]; [12]
  Plant response rating, Velvetleaf: 40
[6]; [13]
  Plant response rating, Velvetleaf: 60
[7]; [11]
  Plant response rating, Wheat: 0
[7]; Postemergence, 500 g ai/ha
  Wheat plant response rating: 10
[7]; [12]
  Plant response rating, Wheat: 0
[7]; [13]
  Plant response rating, Wheat: 0
[8]
  Plant response rating, Flood, Barnyardgrass: 40
  Barnyardgrass plant response rating: 0
[8]; [14]
  Plant response rating, Barnyardgrass: 0
[8]; [15]
  Plant response rating, Barnyardgrass: 20
[9]
  Plant response rating, Flood, Ducksalad: 90
  Ducksalad plant response rating: 75
[9]; [14]
  Plant response rating, Ducksalad: 85
[9]; [15]
  Plant response rating, Ducksalad: 90
Rice (Oryza sativa)
  Plant response rating, Flood, Rice: 25
  Rice plant response rating: 0
Rice (Oryza sativa); [14]
  Plant response rating, Rice: 0
Rice (Oryza sativa); [15]
  Plant response rating, Rice: 20
[10]
  Plant response rating, Flood, Sedge, Umbrella: 80
  Sedge, Umbrella plant response rating: 50
[10]; [14]
  Plant response rating, Sedge, Umbrella: 75
[10]; [15]
  Plant response rating, Sedge, Umbrella: 75

Source: patent US8952024B2, “Herbicidal pyrimidone derivatives” (E I du Pont de Nemours and Company, priority 2009, dated 2015)
